Publication PMC12755868, “Recombinant Production, SpeciesSpecific Activity at the TRPA1 Channel, and Significance of the N-Terminal Residue of ProTx-I Toxin from Thrixopelma Pruriens Tarantula Venom” (Acta Naturae, 2025)
“Also recorded” adds a separate entry of the source. Positions of bridges follow the written chain, without caps; N, C: chain ends. Residues, ends and D or L forms follow the SMILES beside them.

Columns and labels:
human TRPA1 [1] = biological target: T1, human TRPA1 (Homo sapiens, UniProt O75762); test: Inhibition of AITC-induced currents through human TRPA1 in X. laevis oocytes (electrophysiology); assay type: cell-based; details: for residual current (inhibited currents to): human TRPA1, toxin 10 μM, 100 μM AITC, normalized to response without ProTx-I (100%), n = 3–6 oocytes
T1 construct: expressed in transfected cells; host or cells: Xenopus laevis oocytes (mRNA injection)
Experimental: (§1) Currents through human and rat TRPA1 [21] were recorded in X. laevis oocytes expressing these channels. Oocyte isolation, mRNA injection, and experimental recordings have been described previously. All solutions were prepared on the day of the experiment using calcium-free ND-96 containing 96 mM NaCl, 2 mM KCl, 1 mM MgCl2 , and 10 mM HEPES at pH 7.4. Currents were stimulated by the application 100 μM AITC (Sigma-Aldrich). The solution was manually added to the perfusion chamber, and the currents were recorded using voltage ramps as reported in [22]. For each oocyte, we sequentially recorded three responses to AITC application, as well as the subsequent leakage current in the presence of a specific TRPA1 inhibitor: HC030031 (Sigma-Aldrich). The first response amplitude was used to normalize the data obtained on different oocytes. To induce the second response, AITC was applied together with ProTx-I or HC030031. The amplitude of this response was measured, normalized, averaged across different oocytes, and used to plot dose-response curves. Dose-response curves were approximated by the Hill equation: […]
where nH is the Hill coefficient.
Statistical data processing was performed using GraphPad Prism 9.0. To compare current amplitudes at specific toxin concentrations, either a two-tailed Student’s t-test or one-way ANOVA and Dunnett’s multiple comparison test was used. Dose-response curve parameters were compared using the F-test.
Fig. 4 Effect of ProTx-I variants on AITC-induced outward currents through TRPA1 in X. laevis oocytes. (A) Average normalized current traces for the human TRPA1 channel in the absence and presence of the selective antagonist HC030031 or ProTx-I. Data are presented as mean ± SEM (lines and shaded areas, respectively, n = 3–6 oocytes). Compound application periods are shown by solid black bars above the traces. […] (C) Dose-response curves for recombinant rProTx-I at human (hTRPA1) and rat (rTRPA1) ion channels. […] Data in B and C (mean ± SEM, n = 3–6 oocytes) are normalized to the response recorded without ProTx-I (100%)

rat TRPA1 = biological target: T2, rat TRPA1 (Rattus norvegicus, UniProt Q6RI86); test: Inhibition of AITC-induced currents through rat TRPA1 in X. laevis oocytes (electrophysiology); assay type: cell-based
T2 construct: expressed in transfected cells; host or cells: Xenopus laevis oocytes (mRNA injection)
Experimental: as §1
where nH is the Hill coefficient. […]
Fig. 4 Effect of ProTx-I variants on AITC-induced outward currents through TRPA1 in X. laevis oocytes. […] Data in B and C (mean ± SEM, n = 3–6 oocytes) are normalized to the response recorded without ProTx-I (100%)

[2] = tested on: voltage-gated sodium (NaV), potassium, and calcium channels; details: cited from earlier work
Source text: Due to its action at the NaV1.7, NaV1.8, and TRPA1 channels involved in pain perception and propagation, ProTx-I may be used as a model for the development of next-generation analgesics. ProTx-I consists of 35 amino acid residues, with three disulfide bonds forming an inhibitor cystine knot (ICK) motif, which challenges its heterologous production. An efficient Pro ... || Spider knottins include membrane-active toxins that affect the activation or inactivation of sodium (NaV), potassium, and calcium voltage-gated channels (so-called gating modifier toxins). The ProTx-I toxin (Protoxin-I or β/ω-theraphotoxin-Tp1a, 35 aa) is a membrane-active knottin of the Peruvian green velvet tarantula Thrixopelma pruriens. […] Among the ProTx-I targets, NaV1.7, NaV1.8, and TRPA1 channels are promising therapeutic targets for the treatment of pain and neu ...

human TRPA1 [3] = biological target: T1, human TRPA1; details: cited from earlier work
Source text: In the present study, we compared the functional activity of Met-ProTx-I and ProTx-I, with the latter being produced by hydrolysis of 6His-Met-ProTx-I, at the human TRPA1 channel expressed in X. laevis oocytes.

T1 sequence (O75762 whole entry): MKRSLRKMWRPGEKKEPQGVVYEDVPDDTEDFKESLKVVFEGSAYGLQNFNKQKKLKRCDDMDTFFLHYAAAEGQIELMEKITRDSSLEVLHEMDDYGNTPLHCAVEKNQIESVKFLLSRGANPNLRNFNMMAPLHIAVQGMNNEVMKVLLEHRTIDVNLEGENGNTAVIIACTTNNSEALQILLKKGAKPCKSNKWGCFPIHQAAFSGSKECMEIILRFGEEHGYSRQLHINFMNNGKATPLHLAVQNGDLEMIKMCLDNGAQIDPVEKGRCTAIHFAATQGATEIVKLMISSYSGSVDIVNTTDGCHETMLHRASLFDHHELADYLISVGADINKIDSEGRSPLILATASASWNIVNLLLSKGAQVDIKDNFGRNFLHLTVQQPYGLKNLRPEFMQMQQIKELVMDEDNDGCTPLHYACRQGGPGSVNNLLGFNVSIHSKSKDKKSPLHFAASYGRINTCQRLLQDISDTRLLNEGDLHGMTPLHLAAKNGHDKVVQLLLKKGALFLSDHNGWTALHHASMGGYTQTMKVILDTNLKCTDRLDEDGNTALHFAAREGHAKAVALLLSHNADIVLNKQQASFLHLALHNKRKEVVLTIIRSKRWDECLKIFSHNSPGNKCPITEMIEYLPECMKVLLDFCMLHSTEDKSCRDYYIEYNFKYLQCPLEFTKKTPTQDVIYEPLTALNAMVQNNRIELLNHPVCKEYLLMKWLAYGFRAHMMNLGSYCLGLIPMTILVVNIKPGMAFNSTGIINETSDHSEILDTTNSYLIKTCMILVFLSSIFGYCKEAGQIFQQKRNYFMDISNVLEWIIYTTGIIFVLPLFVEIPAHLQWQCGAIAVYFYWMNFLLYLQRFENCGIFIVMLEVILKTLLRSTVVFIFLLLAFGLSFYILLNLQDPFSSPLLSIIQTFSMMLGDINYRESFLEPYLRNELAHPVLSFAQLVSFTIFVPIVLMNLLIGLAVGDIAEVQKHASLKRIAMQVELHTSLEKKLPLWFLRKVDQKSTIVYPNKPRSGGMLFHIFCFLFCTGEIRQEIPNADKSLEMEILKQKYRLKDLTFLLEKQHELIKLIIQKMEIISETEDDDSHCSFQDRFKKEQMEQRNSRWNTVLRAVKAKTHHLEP
T2 sequence (Q6RI86 whole entry): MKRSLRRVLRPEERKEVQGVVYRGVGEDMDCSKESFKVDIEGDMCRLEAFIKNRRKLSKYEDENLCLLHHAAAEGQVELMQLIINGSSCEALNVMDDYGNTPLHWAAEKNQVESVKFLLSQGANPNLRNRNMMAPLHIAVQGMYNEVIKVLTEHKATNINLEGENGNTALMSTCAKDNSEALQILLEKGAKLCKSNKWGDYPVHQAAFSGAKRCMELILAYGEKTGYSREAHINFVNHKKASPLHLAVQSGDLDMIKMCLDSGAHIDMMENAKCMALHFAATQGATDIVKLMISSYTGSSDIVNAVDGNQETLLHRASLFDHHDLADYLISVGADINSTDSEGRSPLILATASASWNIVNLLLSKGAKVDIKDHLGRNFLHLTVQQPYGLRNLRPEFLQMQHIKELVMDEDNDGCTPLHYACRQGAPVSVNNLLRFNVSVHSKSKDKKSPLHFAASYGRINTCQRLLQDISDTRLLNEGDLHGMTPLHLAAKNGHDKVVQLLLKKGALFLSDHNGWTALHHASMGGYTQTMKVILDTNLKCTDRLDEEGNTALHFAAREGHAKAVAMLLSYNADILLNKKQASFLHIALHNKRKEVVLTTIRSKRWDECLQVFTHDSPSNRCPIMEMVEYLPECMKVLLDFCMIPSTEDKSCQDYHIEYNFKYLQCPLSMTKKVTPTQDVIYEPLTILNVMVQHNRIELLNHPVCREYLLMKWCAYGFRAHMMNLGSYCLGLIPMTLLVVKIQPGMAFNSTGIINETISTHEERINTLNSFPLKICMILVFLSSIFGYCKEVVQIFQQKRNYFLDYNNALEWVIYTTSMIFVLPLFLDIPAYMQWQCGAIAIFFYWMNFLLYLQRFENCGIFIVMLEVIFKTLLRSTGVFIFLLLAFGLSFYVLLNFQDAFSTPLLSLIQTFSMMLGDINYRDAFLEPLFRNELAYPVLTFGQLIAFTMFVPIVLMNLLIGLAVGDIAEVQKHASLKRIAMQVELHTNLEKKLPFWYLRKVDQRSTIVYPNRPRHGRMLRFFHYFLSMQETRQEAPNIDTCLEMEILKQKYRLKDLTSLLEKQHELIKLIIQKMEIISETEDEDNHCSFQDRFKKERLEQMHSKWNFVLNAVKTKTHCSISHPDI

Compound	IC50 (human TRPA1 [1]) [nM]	residual current (inhibited currents to) (human TRPA1 [1])	also measured
CC(C)c1ccc(NC(=O)Cn2cnc3c2c(=O)n(C)c(=O)n3C)cc1 [HC030031]			inhibition of current through TRPA1 (in words) (human TRPA1 [1]): This effect was similar to that of 50 μM HC0300301
CSCC[C@H](N)C(=O)N[C@@H](CCC(=O)O)C(=O)N[C@H]1CSSC[C@@H]2NC(=O)[C@@H]3CSSC[C@@H](C(=O)N[C@H](C(=O)N[C@@H](Cc4c[nH]c5ccccc45)C(=O)N[C@@H](CC(=O)O)C(=O)NCC(=O)N[C@H](C(=O)N[C@@H](Cc4ccccc4)C(=O)N[C@@H](CO)C(=O)O)[C@@H](C)O)C(C)C)NC(=O)[C@H](Cc4c[nH]c5ccccc45)NC(=O)CNC(=O)[C@H](Cc4c[nH]cn4)NC(=O)[C@H](CCCNC(=N)N)NC(=O)[C@H](CCCNC(=N)N)NC(=O)[C@H](CO)NC(=O)[C@H](CSSC[C@H](NC(=O)CNC(=O)CNC(=O)[C@H](CC(C)C)NC(=O)[C@H](Cc4c[nH]c5ccccc45)NC(=O)[C@H](Cc4ccc(O)cc4)NC(=O)[C@H](CCCNC(=N)N)NC1=O)C(=O)N[C@@H](CO)C(=O)N[C@@H](C)C(=O)NCC(=O)N[C@@H](CCC(N)=O)C(=O)N[C@@H]([C@@H](C)O)C(=O)N3)NC(=O)[C@H](C(C)C)NC(=O)[C@H](CC(C)C)NC(=O)[C@H](Cc1c[nH]cn1)NC(=O)[C@H](CCCCN)NC2=O [Met-ProTx-I] (H-MECRYWLGGCSAGQTCCKHLVCSRRHGWCVWDGTFS-OH; disulfide 3-17, 10-22, 16-29)	8900 ± 7000	~ 60%	
CC(C)C[C@@H]1NC(=O)[C@H](Cc2c[nH]c3ccccc23)NC(=O)[C@H](Cc2ccc(O)cc2)NC(=O)[C@H](CCCNC(=N)N)NC(=O)[C@@H](NC(=O)[C@@H](N)CCC(=O)O)CSSC[C@@H]2NC(=O)[C@@H]3CSSC[C@@H](C(=O)N[C@H](C(=O)N[C@@H](Cc4c[nH]c5ccccc45)C(=O)N[C@@H](CC(=O)O)C(=O)NCC(=O)N[C@H](C(=O)N[C@@H](Cc4ccccc4)C(=O)N[C@@H](CO)C(=O)O)[C@@H](C)O)C(C)C)NC(=O)[C@H](Cc4c[nH]c5ccccc45)NC(=O)CNC(=O)[C@H](Cc4c[nH]cn4)NC(=O)[C@H](CCCNC(=N)N)NC(=O)[C@H](CCCNC(=N)N)NC(=O)[C@H](CO)NC(=O)[C@H](CSSC[C@H](NC(=O)CNC(=O)CNC1=O)C(=O)N[C@@H](CO)C(=O)N[C@@H](C)C(=O)NCC(=O)N[C@@H](CCC(N)=O)C(=O)N[C@@H]([C@@H](C)O)C(=O)N3)NC(=O)[C@H](C(C)C)NC(=O)[C@H](CC(C)C)NC(=O)[C@H](Cc1c[nH]cn1)NC(=O)[C@H](CCCCN)NC2=O [ProTx-I (Smartox)]	410 ± 160	~ 5%	
CC(C)C[C@@H]1NC(=O)[C@H](Cc2c[nH]c3ccccc23)NC(=O)[C@H](Cc2ccc(O)cc2)NC(=O)[C@H](CCCNC(=N)N)NC(=O)[C@@H](NC(=O)[C@@H](N)CCC(=O)O)CSSC[C@@H]2NC(=O)[C@@H]3CSSC[C@@H](C(=O)N[C@H](C(=O)N[C@@H](Cc4c[nH]c5ccccc45)C(=O)N[C@@H](CC(=O)O)C(=O)NCC(=O)N[C@H](C(=O)N[C@@H](Cc4ccccc4)C(=O)N[C@@H](CO)C(=O)O)[C@@H](C)O)C(C)C)NC(=O)[C@H](Cc4c[nH]c5ccccc45)NC(=O)CNC(=O)[C@H](Cc4c[nH]cn4)NC(=O)[C@H](CCCNC(=N)N)NC(=O)[C@H](CCCNC(=N)N)NC(=O)[C@H](CO)NC(=O)[C@H](CSSC[C@H](NC(=O)CNC(=O)CNC1=O)C(=O)N[C@@H](CO)C(=O)N[C@@H](C)C(=O)NCC(=O)N[C@@H](CCC(N)=O)C(=O)N[C@@H]([C@@H](C)O)C(=O)N3)NC(=O)[C@H](C(C)C)NC(=O)[C@H](CC(C)C)NC(=O)[C@H](Cc1c[nH]cn1)NC(=O)[C@H](CCCCN)NC2=O [rProTx-I]	840 ± 190	~ 5%	IC50 (rat TRPA1; rTRPA1 in X. laevis oocytes, outward currents induced by 100 μM AITC, calcium-free ND-96, pH 7.4, voltage ramps, Hill equation fit, n = 3–6 oocytes, rat vs human p = 0.006 (F-test)): 250 ± 70 nM
ProTx-I			inhibition of voltage-gated channels (in words) [2]: inhibits voltage-gated sodium (NaV), potassium, and calcium channels; also recorded: effectively inhibits a number of voltage-gated channels; species selectivity, human versus mouse TRPA1 (in words) (human TRPA1 [3]): higher activity at the human channel; species selectivity, rat versus human TRPA1 (in words) (rat TRPA1; rat versus human TRPA1, difference in IC50 p = 0.006 (F-test)): different activities relative to human and rat TRPA1 channels
